From ChEMBL document CHEMBL1201862, “PubChem BioAssay data set” (2004)
Where a name gives a salt, the structure may show the parent alone.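 Growth conditions: 96-well plates. Treatment: test compound, 48 hours, 5 concentrations. Analysis: linear interpolation between bracketing concentrations; unreached endpoints set to highest concentration. GI50 marks 50% less growth.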 Activity calls are given as the source filed them. Cut-off read from the data, not from the text of the source: active = GI50 up to about 1.1 µM and inactive = higher. Starred links: 1 amine or outer side, 2 acyl side, 3 side chain; linkers in the order of their positions; H or OH if unused. Non-standard residues stand in square brackets, D forms with d. Residues, ends and D or L forms follow the SMILES beside them. ξ: configuration not given here. Ile(3ξ) = CCC(C)[C@H](N)C(=O)O; X35 = C=CCC(O[*:1])C(=O)[*:2]; NMeV = CN[C@H](C(=O)O)C(C)C; NMeA = CN[C@@H](C)C(=O)O; βAla = NCCC(=O)O

Key:
Experiment in all cases: NCI tumour cell line growth inhibition, 48 h
[1] = system: NCI-H460
[2] = system: SK-OV-3
[3] = system: SN12C
[4] = system: CCRF-CEM
[5] = system: A549
[6] = system: HOP-92
[7] = system: OVCAR-5
[8] = system: DLD-1
[9] = system: CAKI-1
[10] = system: HL-60
[11] = system: SNB-19
[12] = system: UACC-62
[13] = system: Malme-3M
[14] = system: SW-620
[15] = system: HCC 2998

Measured: GI50

Nc1nc(SCC(=O)c2ccccc2)c2[nH]cnc2n1
inactive: [1] > 100 µM | [2] > 100 µM | [3] > 100 µM | [4] 51.6 µM | [5] > 100 µM | [6] 46.5 µM | [7] > 100 µM | [8] > 100 µM | [9] > 100 µM | [10] > 100 µM | [11] > 100 µM | [12] > 100 µM | [13] > 100 µM | [14] > 100 µM | [15] > 100 µM

COc1ccc(C2=NN(C(C)=O)c3nc4ccccc4nc3O2)cc1
inactive: [1] 32.1 µM | [3] > 100 µM | [4] > 100 µM | [5] 40.6 µM | [6] 16.4 µM | [8] 25.4 µM | [10] > 100 µM | [11] 27 µM | [12] 61.4 µM | [13] 70.6 µM | [14] > 100 µM | [15] > 100 µM

CC(C)S(=O)(=O)n1c(N)nc2ccc(/C(=N/O)c3ccccc3)cc21 [ENVIROXIME]
inactive: [1] 26.1 µM | [2] 22.4 µM | [3] 27.8 µM | [4] 10.6 µM | [5] 14.2 µM | [6] 3.61 µM | [7] 21 µM | [8] 26.2 µM | [9] 14.2 µM | [10] 12.2 µM | [11] 30 µM | [12] 23.1 µM | [13] 45.4 µM | [14] 21.8 µM | [15] 22 µM

C1=c2ccccc2=C2C(=C(c3ccccc3)C(c3ccccc3)=NN2c2ccccc2)S1
inactive: [1] > 100 µM | [2] > 100 µM | [3] > 100 µM | [4] > 100 µM | [5] > 100 µM | [6] > 100 µM | [7] > 100 µM | [8] > 100 µM | [9] > 100 µM | [10] > 100 µM | [11] > 100 µM | [12] > 100 µM | [13] > 100 µM | [14] 91.4 µM | [15] > 100 µM

CN(C)c1nc(Oc2nc(N(C)C)nc(N(C)C)n2)nc(N(C)C)n1
inactive: [1] > 100 µM | [2] > 100 µM | [3] > 100 µM | [4] > 100 µM | [5] 67 µM | [6] > 100 µM | [7] > 100 µM | [8] > 100 µM | [9] > 100 µM | [10] 52.5 µM | [11] > 100 µM | [12] > 100 µM | [13] > 100 µM | [14] > 100 µM | [15] 88.7 µM

O=C1NC2OCC(O)C(O)C2O1 (stereo unspecified)
inactive: [1] > 100 µM | [2] > 100 µM | [3] > 100 µM | [4] > 100 µM | [5] > 100 µM | [6] > 100 µM | [7] > 100 µM | [8] > 100 µM | [9] > 100 µM | [10] > 100 µM | [11] > 100 µM | [12] > 100 µM | [13] > 100 µM | [14] > 100 µM | [15] > 100 µM

C/C(=N\NS(=O)(=O)c1ccc(C)cc1)C(CN1CCCCC1)C(c1ccccc1)c1c(O)c2ccccc2oc1=O (stereo unspecified)
inactive: [1] > 100 µM | [2] > 100 µM | [3] > 100 µM | [4] > 100 µM | [5] > 100 µM | [6] 95.7 µM | [7] > 100 µM | [8] > 100 µM | [9] > 100 µM | [10] > 100 µM | [11] > 100 µM | [12] > 100 µM | [13] > 100 µM | [14] 70.6 µM | [15] > 100 µM

C=CCc1cc(OC)c2c(c1)C(O)CC(c1ccc(OC)c(OC)c1)O2 (stereo unspecified)
inactive: [1] > 100 µM | [2] > 100 µM | [3] > 100 µM | [4] > 100 µM | [5] > 100 µM | [6] 20.6 µM | [7] > 100 µM | [8] > 100 µM | [9] 73.3 µM | [10] 24.9 µM | [11] > 100 µM | [12] > 100 µM | [14] > 100 µM | [15] > 100 µM

C=CCC1OC(=O)CCNC(=O)[C@H](C)N(C)C(=O)[C@H](C(C)C)N(C)C(=O)[C@H](C(C)CC)NC(=O)[C@@H]2CCCN2C1=O (stereo partly specified) (cyclo([Ile(3ξ)][NMeV][NMeA][βAla][X35]P))
inactive: [1] 4.94 µM | [2] 99.1 µM | [3] 11.5 µM | [4] 3.62 µM | [5] 9.08 µM | [6] 8.93 µM | [7] 13.6 µM | [8] 10.4 µM | [9] 8.93 µM | [10] 3.39 µM | [11] > 39.4 µM | [12] 4.08 µM | [13] 3.28 µM | [14] 5.07 µM | [15] 5.31 µM

CS(=O)(=O)Sc1ccc(Cl)cc1
inactive: [1] 10.9 µM | [2] 23.5 µM | [3] 3.69 µM | [4] 2.54 µM | [5] 3.75 µM | [6] 7.11 µM | [7] 17.6 µM | [8] 13.9 µM | [9] 10.7 µM | [10] 4.42 µM | [11] 3.4 µM | [13] 11.6 µM | [14] 12.7 µM | [15] 11.2 µM

Clc1ccc(/N=N/c2nc3ccccc3nc2/N=N/c2ccc(Cl)cc2Cl)c(Cl)c1
inactive: [1] > 100 µM | [3] > 100 µM | [5] > 100 µM | [6] 44 µM | [8] > 100 µM | [10] 31.5 µM | [11] 65.8 µM | [13] > 100 µM | [14] > 100 µM | [15] > 100 µM

CC1=NCCc2c1[nH]c1cc(O)ccc21 [HARMALOL HYDROCHLORIDE]
inactive: [1] > 100 µM | [2] > 100 µM | [3] > 100 µM | [4] > 100 µM | [5] > 100 µM | [6] > 100 µM | [7] > 100 µM | [8] > 100 µM | [9] > 100 µM | [10] > 100 µM | [11] > 100 µM | [12] > 100 µM | [13] > 100 µM | [14] > 100 µM | [15] > 100 µM

COc1cc(/C=C/C(=O)c2sc(NNC(C)=O)nc2C)ccc1O
inactive: [1] > 100 µM | [2] > 100 µM | [3] > 100 µM | [4] > 100 µM | [5] > 100 µM | [6] > 100 µM | [7] > 100 µM | [8] > 100 µM | [9] > 100 µM | [10] > 100 µM | [12] > 100 µM | [13] > 100 µM | [14] > 100 µM | [15] > 100 µM

O=C1[C@H]2ON(c3ccccc3)C(c3cccc([N+](=O)[O-])c3)[C@H]2C(=O)N1c1ccc(Cc2ccc(N3C(=O)[C@@H]4ON(c5ccccc5)C(c5cccc([N+](=O)[O-])c5)[C@@H]4C3=O)cc2)cc1 (stereo partly specified)
inactive: [1] > 100 µM | [2] > 100 µM | [3] > 100 µM | [4] > 100 µM | [5] > 100 µM | [7] > 100 µM | [8] > 100 µM | [9] 38.6 µM | [10] > 100 µM | [11] > 100 µM | [12] 47.4 µM | [13] 75 µM | [14] > 100 µM | [15] > 100 µM

CC(O)C1OC(n2ccc(=O)[nH]c2=O)CC1n1cncn1 (stereo unspecified)
inactive: [1] > 100 µM | [2] > 100 µM | [3] > 100 µM | [4] > 100 µM | [5] > 100 µM | [7] > 100 µM | [8] > 100 µM | [9] > 100 µM | [10] > 100 µM | [11] > 100 µM | [12] > 100 µM | [13] > 100 µM | [14] > 100 µM | [15] > 100 µM

C/C(=N\NC(=O)CC#N)c1c(O)cc(C)oc1=O
inactive: [1] > 100 µM | [2] > 100 µM | [3] > 100 µM | [4] > 100 µM | [5] > 100 µM | [6] > 100 µM | [8] > 100 µM | [9] > 100 µM | [10] > 100 µM | [11] > 100 µM | [12] > 100 µM | [13] > 100 µM | [14] > 100 µM | [15] > 100 µM

Nc1nc(Cl)c2ncn(CCCC(c3ccccc3)P(=O)(O)O)c2n1 (stereo unspecified)
inactive: [1] > 100 µM | [2] > 100 µM | [3] > 100 µM | [4] > 100 µM | [5] > 100 µM | [6] > 100 µM | [7] > 100 µM | [8] > 100 µM | [9] > 100 µM | [10] > 100 µM | [11] > 100 µM | [12] > 100 µM | [13] > 100 µM | [14] > 100 µM | [15] > 100 µM

CCCCCC#COC1CC(C)CC[C@@H]1C(C)C (stereo partly specified)
inactive: [1] 23.8 µM | [2] > 100 µM | [3] > 100 µM | [4] 15.4 µM | [5] 56.5 µM | [6] > 100 µM | [7] 71.4 µM | [8] 41.3 µM | [9] 50.8 µM | [10] 23 µM | [11] 58.1 µM | [12] 62.7 µM | [13] > 100 µM | [14] 18.5 µM | [15] > 100 µM
